The values that follow come from US20230026869A1, “CRYSTAL FORM OF NUCLEOPROTEIN INHIBITOR AND USE THEREOF” (CHIA TAI TIANQING PHARMACEUTICAL GROUP CO., LTD., priority 2019, published 2023).

The test system of the experiment is hepatitis B virus. The experiment in a line: In vivo efficacy study, HDJ/HBV mouse model (HBV DNA in plasma and liver by qPCR). More on the design: species or system mice. The procedure: Objective: The efficacy of the compound against hepatitis B virus in mice was determined through the HDJ/HBV mouse model.
Preparation of compound: the solvent was 10% polyethylene glycol-15 hydroxystearate; a certain amount of the tested compound of formula (I) was dissolved in an aqueous solution containing 10% polyethylene glycol-15 hydroxystearate, and the mixture was vortexed and sonicated to prepare a homogeneous suspension, and the suspension was stored at 4° C. for later use.
High pressure injection of the HBV plasmid DNA solution via the tail vein of mice: the day of plasmid injection was day 0, the day after injection was day 1, and so on. On day 0, all animals were injected by tail vein with a saline solution containing 10 μg of plasmid DNA at a volume of […] of body weight, and the injection was completed within 5 seconds.
Administration: all mice were administered intragastrically twice a day (8/16 h interval) on day 1-6 and once on day 7. All mice were euthanized in the afternoon on day 7. The body weight of the mice, which was monitored every day, remained stable throughout the experiment.
Sample collection: blood was collected from the submandibular vein 4 h after the first administration in the morning on days 1, 3, and 5. All blood samples were collected in K2-EDTA anticoagulation tubes, and centrifuged for 10 min at 4° C., 7000 g to prepare about 40 μL of plasma. All mice were euthanized by CO2 four hours after administration in the morning on day 7. Blood was collected from the heart, and the plasma preparation method was the same as above. Two liver tissues were collected with 70-100 mg each, and quick-frozen by liquid nitrogen. After all samples were collected, they were stored in a refrigerator (−80° C.) for HBV DNA content detection.
Sample analysis: all plasma samples and liver samples were detected for HBV DNA by qPCR.
(Real-time PCR tracks product formation cycle by cycle.)

Where [1] appears, read: 10 mg/kg intragastrically twice a day.
Setting [2] is: 30 mg/kg intragastrically twice a day.

For the molecule `CC1(NC(=O)C(=O)c2c(Cl)c(C(=O)Nc3cc(F)c(F)c(F)c3)c3n2CCC3)CCC(CC(=O)O)CC1` (stereo not shown) [Compound of formula (I)], under setting [1], the “HBV-DNA reduction, Liver (day 7)” value is recorded as 0.94 Δ Log10 copies/100 ng and the “HBV-DNA reduction, Plasma (day 5)” value is 2.0 Δ Log10 copies/μL. Under setting [2], the “HBV-DNA reduction, Liver (day 7)” value is 2.36 Δ Log10 copies/100 ng and the “HBV-DNA reduction, Plasma (day 5)” value is 3.57 Δ Log10 copies/μL.
